Data: publication PMC9685933, “Tiliroside suppresses triple-negative breast cancer as a multifunctional CAXII inhibitor” (Cancer Cell International, 2022)

Target: T1, CAXII (Homo sapiens, UniProt O43570)
T1 construct: gene CA12
Assay: CAXII esterase activity assay (4-nitrophenol absorbance) in MDA-MB-231 cells; […] in BT-549 cells
Format: cell-based

T1 sequence (O43570 25-354): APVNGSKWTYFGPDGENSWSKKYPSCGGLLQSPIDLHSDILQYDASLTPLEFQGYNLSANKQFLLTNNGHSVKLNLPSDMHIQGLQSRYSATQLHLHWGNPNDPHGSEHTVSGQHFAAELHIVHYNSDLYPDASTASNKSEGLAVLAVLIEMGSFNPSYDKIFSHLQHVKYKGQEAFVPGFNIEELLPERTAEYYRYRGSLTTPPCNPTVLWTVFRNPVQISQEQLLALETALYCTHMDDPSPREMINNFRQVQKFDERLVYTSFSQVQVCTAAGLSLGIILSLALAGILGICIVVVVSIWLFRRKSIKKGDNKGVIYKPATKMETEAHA

`O=C(/C=C/c1ccc(O)cc1)OC[C@H]1O[C@@H](Oc2c(-c3ccc(O)cc3)oc3cc(O)cc(O)c3c2=O)[C@H](O)[C@@H](O)[C@@H]1O` [TS, Tiliroside] showed an IC50 of 20.9 ± 5.8 µM.
